Source: patent US20240158339A1, “TYRAMINE CONTAINING HYDROXYCINNAMIC ACID AMIDE DERIVATIVES AND METHODS OF USE THEREOF” (Brightseed, Inc., priority 2018, published 2024)
“Also recorded” adds a separate entry of the source.

Tests used:
insulin mRNA = test: Insulin mRNA levels by quantitative PCR; type: cell-based; conditions: FIG. 2
Description: (§1) Expression of Insulin and HNF4α. RNA was purified using a RNEASY® chromatographic separation and isolation kits (Qiagen), and converted to cDNA using the gScript™ cDNA SuperMix (Quanta Biosciences). Q-PCR was conducted with cDNA corresponding to 2 μg of RNA using an Opticon Real-Time System (MJ Research) and QPCR SuperMix (BioPioneer). See All mRNA values were normalized to 18S rRNA values and are expressed as fold changes over vehicle-treated control.

E47MER = test: Counter-screen for estrogenic activity (E47MER luciferase reporter in HeLa cells); type: cell-based, human; conditions: with 1 μM or without tamoxifen, FIG. 5
Description: Counter-Screen for Estrogenic Activity. Estrogenic activity was monitored by co-transfection of a reporter plasmid containing a multimerized E-box 5′ of a minimal promoter fused to the Firefly luciferase gene with wild-type E47 or E47MER (Kiselyuk, et al. (2010) J. Biomol. Screen 15(6):663-70). HeLa cells were transfected using polyethylenimine, 0.2 μg 4RTK-Luc plasmid and either 0.3 μg of human E47, E47MER or pMSCVhph vector in 50 μl of serum-free Dulbecco's modification of Eagle medium per well. Transfections included Renilla luciferase (pRL-TK) plasmid as a control for transfection efficacy. Transfection conditions were as described in the PPRE-Luc reporter assay of Kiselyuk, et al. ((2010) J. Biomol. Screen 15(6):663-70). Sixteen hours after transfection, culture media were changed and maintained for 48 hours with tamoxifen and/or compound or vehicle (DMSO). Cells were then lysed and assayed for luciferase activity using the Promega DUAL-LUCIFERASE® reporter assay kit (Promega Corp., Madison, WI), and luminescence was measured using the Veritas™ Microplate Luminometer (Turner Biosystems, Sunnyvale, CA). Data were normalized to Renilla luciferase (pRL-TK) and expressed as fold-change over vehicle alone.

HNF4α mRNA = HNF4α mRNA levels by quantitative PCR; type: cell-based; conditions: FIG. 3
Description: as §1

diet-induced obese mice = test: Efficacy in diet-induced obese mice; type: in vivo
Description: Alkaline Phosphatase (ALP) Quantitation. Increased levels of ALP in blood are considered indicative of liver function abnormalities. Thus, ALP was assayed in accordance with known methods (Kiselyuk, et al. (2012) Chem. Biol. 19(7):806-818). Briefly, prior to sacrifice, blood was drawn and analyzed using a VetScan blood analyzer, measuring alkaline phosphatase (ALP, IU/L), alanine aminotransferase (ALT, IU/L), gamma glutamyl transferase (GGT, IU/L), bile acids (BA, μmol/L), total bilirubin (TBIL, mg/dL), albumin (ALB, g/dL), blood urea nitrogen (BUN, mg/dL), and cholesterol (CHOL, mg/dL).
Triglyceride (TG) Quantitation. TG quantity was assayed using a Triglyceride Colorimetric Assay Kit (Cayman Chemicals; Ann Arbor, MI) according to the manufacturer's instructions.
Lipid Droplet Size Analysis. All slides were scanned at a magnification of 20× using the Aperio Scanscope FL system (Aperio Technologies Inc.; Vista, CA). The appropriate dyes were assigned and illumination levels were calibrated using a preset procedure; the parameters were saved and applied to all slides. The acquired digital images represented whole tissue sections. Sections were evaluated for image quality. All acquired images were subsequently placed in dedicated project folders, and stored on a designated local server. Selected areas of the slides were selected using Aperio Imagescope (version 12 Aperio Technologies Inc.). For analysis, slides were viewed, whole tissue areas were selected and analyzed using the web-based Image Scope viewer. Slides were quantified using the ‘Color Deconvolution v9’ algorithm for oil redo staining (version 11 Aperio Technologies Inc.). The algorithm was optimized using a preset procedure to maximize the strong red color positive oil droplets signal to noise ratio and the subsequent macro was saved and applied to all slides.
HNF4α Immunostaining in Organ Samples. Samples were harvested from mice, fixed in 4% paraformaldehyde and embedded in paraffin or O.C.T. freezing media (Sakura Finetek; Torrance, CA). Slides of 5 μm thickness were washed four times with PBS and treated with 0.3% Triton™ in PBS for 10 minutes. Antigen retrieval was carried out with CitriSolv™ (Fisher Scientific; Waltham, MA) for 10 minutes in sub-boiling temperature. After washing with PBS for 10 minutes, slides were incubated in blocking solution with 5% normal donkey serum (Jackson Immuno Research; West Grove, PA) for 60 minutes at room temperature. Cells were fixed in 4% paraformaldehyde for 15 minutes on 4° C. and washed with PBS, treated with 0.3% Triton™ in PBS for 10 minutes and blocked as previously described for slide samples.
Primary Antibodies. HNF4α antibodies were used (#sc-6556, Santa Cruz Biotechnology; Santa Cruz, CA and #3113, Cell Signaling Technology; Danvers, MA). For fluorescent imaging, samples were incubated with ALEXA FLOUR® 488 green-fluorescent dye or Rhodamine labeled anti-mouse, rabbit or goat and nuclei were counterstained with DAPI (4′,6-diamidino-2-phenylindole). Controls using secondary antibodies alone were used to ensure specificity of immunostaining. Fluorescently labeled sections were analyzed with a conventional inverted microscope (Olympus, PlanFl 40x/0.60) or with a confocal microscope equipped with a krypton/argon laser.
The experiments were performed to establish feedingand treatment regimens, dosing and administration regimens, as well as to provide evidence of beneficial effects of N-trans-caffeoyltyramine on glucose and lipid homeostasis, hepatic steatosis, -cell function and hepatocyte function. Twelve mice (10 weeks old) were fed a high-fat diet for four weeks to induce obesity. After four weeks, and while on the high-fat diet, six mice were administered 5% DMSO or 120 mg/kg N-trans-caffeoyltyramine twice a day intraperitoneally for 14 days. One hour after the last i.p. injection of DMSO or N-trans-caffeoyltyramine, the animals were sacrificed and blood and organ (liver, kidney, gut and pancreas) samples were collected. […]

Compound: O=C(/C=C/c1ccc(O)c(O)c1)NCCc1ccc(O)cc1 [N-trans-caffeoyltyramine]
- insulin gene expression (insulin mRNA): upregulated
- estrogenic activity (E47MER): did not exhibit estrogenic activity
- HNF4α gene expression (HNF4α mRNA): upregulated
- lipid accumulation in the liver (diet-induced obese mice; 120 mg/kg twice a day i.p. for 14 days vs DMSO): decreased lipid accumulation
- lipid droplet sizes in the liver (diet-induced obese mice; 120 mg/kg twice a day i.p. for 14 days vs DMSO, FIG. 8): reduced
- levels of triglycerides (diet-induced obese mice; 120 mg/kg twice a day i.p. for 14 days vs DMSO, FIG. 10): significantly reduced
- HNF4α expression in the pancreas (diet-induced obese mice; 120 mg/kg twice a day i.p. for 14 days vs DMSO, FIG. 11): increased
- HNF4α expression in intestines (diet-induced obese mice; 120 mg/kg twice a day i.p. for 14 days vs DMSO, FIG. 12): increased
- HNF4α expression in the liver (nuclear expression) (diet-induced obese mice; 120 mg/kg twice a day i.p. for 14 days vs DMSO, P=0.0042, FIG. 7): significantly increased; also recorded: increases nuclear expression of HNF4α
- weight loss, sickness, or abnormal behaviors compared to the control group (diet-induced obese mice; 120 mg/kg twice a day i.p. for 14 days, high-fat diet mice): None of the treated mice exhibited weight loss, sickness, or abnormal behaviors
- levels of alkaline phosphatase (diet-induced obese mice; blood, 120 mg/kg twice a day i.p. for 14 days vs DMSO, FIG. 9): significantly reduced
